We go through 15 molecules from patent US20230203029A1 (priority 2020, published 2023).

Assay [1] concerns the target T1, recombinant human AXL expressed in live cells (HEK, AXL-Nanoluc fusion vector) (Homo sapiens, UniProt P30530).
T1 construct: host or cells: HEK
T1 sequence (P30530 26-894): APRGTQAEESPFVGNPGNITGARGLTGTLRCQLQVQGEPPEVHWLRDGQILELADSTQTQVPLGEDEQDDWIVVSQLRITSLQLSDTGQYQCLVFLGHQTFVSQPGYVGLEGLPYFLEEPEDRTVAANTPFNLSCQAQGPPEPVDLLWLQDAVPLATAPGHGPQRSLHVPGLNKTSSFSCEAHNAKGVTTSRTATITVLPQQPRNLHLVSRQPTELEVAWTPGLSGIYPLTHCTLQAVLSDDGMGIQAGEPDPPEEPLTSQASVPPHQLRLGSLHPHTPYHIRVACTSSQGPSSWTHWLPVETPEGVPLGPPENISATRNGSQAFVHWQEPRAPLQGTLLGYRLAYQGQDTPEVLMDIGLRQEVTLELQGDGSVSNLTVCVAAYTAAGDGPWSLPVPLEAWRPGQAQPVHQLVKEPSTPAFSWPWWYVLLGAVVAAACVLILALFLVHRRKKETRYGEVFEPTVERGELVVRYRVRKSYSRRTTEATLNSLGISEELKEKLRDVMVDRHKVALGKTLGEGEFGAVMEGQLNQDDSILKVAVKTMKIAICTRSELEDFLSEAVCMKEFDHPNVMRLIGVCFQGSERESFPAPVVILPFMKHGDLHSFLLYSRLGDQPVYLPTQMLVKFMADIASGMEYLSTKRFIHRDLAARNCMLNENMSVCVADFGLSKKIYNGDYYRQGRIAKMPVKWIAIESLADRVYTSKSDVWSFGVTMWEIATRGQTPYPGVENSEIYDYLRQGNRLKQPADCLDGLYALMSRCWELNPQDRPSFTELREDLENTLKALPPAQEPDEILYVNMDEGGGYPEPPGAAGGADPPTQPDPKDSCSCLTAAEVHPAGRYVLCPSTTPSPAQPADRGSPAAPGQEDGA
The experiment in a line: Assay 3 AXL cellular target engagement (NanoBRET TE) assay. The class given is cell-based. The procedure:
Assay 3—AXL Cellular Target Engagement (TE) Assay
Compound affinities for recombinant human AXL expressed in live cells were assessed via the Promega NanoBRET TE assay technology. Human Embryonic Kidney (HEK) cells were transiently transfected with the AXL-Nanoluc fusion vector (Promega Cat NV1071) using Fugene HD reagent (Promega E2311). […] Incubations were conducted for 2 h at 37° C., after which 20 μl NanoGlo substrate/inhibitor mix (Promega N2161) was added to each well for 2-3 min. The plate was then read on a BMG Pherastar FSX using a NanoBRET filter to record donor emission at 450 nm and acceptor fluorophore emission at 610 nm. From this the BRET ratio (acceptor 610 nm/donor 450 nm) for each data point was calculated.

Assay [2] has as its target T2, human MERTK cytoplasmic domain (Homo sapiens, UniProt Q12866).
T2 construct: human MERTK cytoplasmic domain (Carna Biosciences 08-108); purchased Carna Biosciences 08-108
The experiment in a line: biochemical. The following applies: 30 uM ATP, read-out: Assay 1a Mer IC50 30 uM ATP. The protocol: Assay 1a—MERTK HTRF KinEASE-TK Assay
The enzymatic reaction was carried out for 30 min at room temperature. 10 μL TK Antibody-Cryptate/Streptavidin-XL665 (Cisbio 610SAXLG) was then added for 60 min, including EDTA containing detection buffer (Cisbio 62SDBRDF) to stop the reaction.

The target in assay [3] is T3, recombinant human MERTK expressed in live cells (HEK 293, MERTK-Nanoluc fusion vector) (Homo sapiens, UniProt Q12866).
T3 construct: host or cells: HEK 293
T3 sequence (Q12866 21-999): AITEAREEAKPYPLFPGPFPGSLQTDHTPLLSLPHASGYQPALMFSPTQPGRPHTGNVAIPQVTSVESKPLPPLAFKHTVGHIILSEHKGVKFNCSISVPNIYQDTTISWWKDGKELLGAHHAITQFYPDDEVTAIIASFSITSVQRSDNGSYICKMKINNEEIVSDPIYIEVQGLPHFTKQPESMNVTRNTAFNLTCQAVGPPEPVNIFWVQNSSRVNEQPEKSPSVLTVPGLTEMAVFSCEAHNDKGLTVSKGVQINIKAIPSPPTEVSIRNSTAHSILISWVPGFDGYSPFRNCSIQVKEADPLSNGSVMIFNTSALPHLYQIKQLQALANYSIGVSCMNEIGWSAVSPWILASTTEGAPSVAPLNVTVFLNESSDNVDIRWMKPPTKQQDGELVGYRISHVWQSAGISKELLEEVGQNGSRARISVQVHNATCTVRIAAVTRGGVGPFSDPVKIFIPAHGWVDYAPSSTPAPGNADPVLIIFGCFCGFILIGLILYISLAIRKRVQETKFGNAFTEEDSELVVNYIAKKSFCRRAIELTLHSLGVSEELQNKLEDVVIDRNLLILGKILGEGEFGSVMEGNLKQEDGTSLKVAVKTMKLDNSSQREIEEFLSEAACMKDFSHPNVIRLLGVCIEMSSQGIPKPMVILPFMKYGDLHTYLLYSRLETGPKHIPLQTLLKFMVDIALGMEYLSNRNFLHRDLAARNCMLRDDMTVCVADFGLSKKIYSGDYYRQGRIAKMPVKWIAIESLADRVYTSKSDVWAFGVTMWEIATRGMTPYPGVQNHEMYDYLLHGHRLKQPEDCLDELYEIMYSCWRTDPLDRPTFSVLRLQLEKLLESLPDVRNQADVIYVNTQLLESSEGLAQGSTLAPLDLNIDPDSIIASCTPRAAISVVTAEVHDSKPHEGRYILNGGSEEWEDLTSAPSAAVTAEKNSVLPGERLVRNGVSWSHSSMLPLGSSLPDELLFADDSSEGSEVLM
The experiment in a line: Assay 2 MERTK cellular target engagement (NanoBRET TE) assay. Format: cell-based. The following applies: HEK 293 cells, tracer K9, 2 h at 37° C.; read-out: Assay 2 Cell TE MER IC50. A general note: Bioluminescence resonance energy transfer reports proximity on the nanometre scale.

The mark [4] stands for this setting: * Maximal inhibition achieved 40%.

The structures appear in SMILES notation. pIC50: −log10 of the molar value. Read-outs that look alike come from different tables or passages of the source.

For orientation: pIC50 means the negative decadic logarithm of the IC50, by convention in mol/L. Regarding `O=C(Nc1ccc(Nc2ccnc3cnc(N4CCNCC4)cc23)cc1)c1cccn(-c2ccccc2)c1=O` [Example 1, 2-oxo-1-phenyl-N-[4-[(6-piperazin-1-yl-1,7-naphthyridin-4-yl)amino]phenyl]pyridine-3-carboxamide], the pIC50 in assay [1] was 6.84; in assay [2], 7.17; in assay [3], 6.76.
For `CC(C)n1cc(C(=O)Nc2ccc(Nc3ccnc4cnc(N5CCNCC5)cc34)cc2)c(=O)n(-c2ccc(F)cc2)c1=O` [Example 1.1, 3-(4-fluorophenyl)-1-isopropyl-2,4-dioxo-N-[4-[(6-piperazin-1-yl-1,7-naphthyridin-4-yl)amino]phenyl]pyrimidine-5-carboxamide] the same measures were 8.54, 7.12 and 5.76.
In the case of `O=C(Nc1ccc(Nc2ccnc3cnc(N4CCNCC4)cc23)cc1)c1cccn(-c2ccc(F)cc2)c1=O` [Example 1.2, 1-(4-fluorophenyl)-2-oxo-N-[4-[(6-piperazin-1-yl-1,7-naphthyridin-4-yl)amino]phenyl]pyridine-3-carboxamide], the pIC50 in assay [1] was 6.94; in assay [2], 7.70; in assay [3], 7.55.
As for `CC(C)n1cc(C(=O)Nc2ccc(Nc3ccnc4cnc(N5CCNCC5)cc34)cc2)c(=O)n(-c2ccccc2)c1=O` [Example 1.3, 1-isopropyl-2,4-dioxo-3-phenyl-N-[4-[(6-piperazin-1-yl-1,7-naphthyridin-4-yl)amino]phenyl]pyrimidine-5-carboxamide], the pIC50 in assay [1] was 7.61; in assay [2], 6.74; in assay [3] it was 6.59.
Regarding `Cc1c(C(=O)Nc2ccc(Nc3ccnc4cnc(N5CCNCC5)cc34)cc2)c(=O)n(-c2ccccc2)n1C` [Example 1.4, 1,5-dimethyl-3-oxo-2-phenyl-N-[4-[(6-piperazin-1-yl-1,7-naphthyridin-4-yl)amino]phenyl]pyrazole-4-carboxamide], the pIC50 in assay [2] is 7.48; in assay [3], 5.66.
On to `O=C(Nc1ccc(Nc2ccnc3cnc(N4CCC(O)CC4)cc23)cc1)c1cccn(-c2ccccc2)c1=O` [Example 2, N-[4-[[6-(4-hydroxy-1-piperidyl)-1,7-naphthyridin-4-yl]amino]phenyl]-2-oxo-1-phenyl-pyridine-3-carboxamide], for which the pIC50 is 6.76 in assay [1], 7.23 in assay [2] and 7.33 in assay [3].
On to `O=C(Nc1ccc(Nc2ccnc3cnc(N4CCOCC4)cc23)cc1)c1cccn(-c2ccccc2)c1=O` [Example 2.1, N-[4-[(6-morpholino-1,7-naphthyridin-4-yl)amino]phenyl]-2-oxo-1-phenyl-pyridine-3-carboxamide], for which the pIC50 is 5.85 in assay [1], 6.71 in assay [2] and 6.79 in assay [3].
For `O=C(Nc1ccc(Nc2ccnc3cnc(N4CCCNCC4)cc23)cc1)c1cccn(-c2ccccc2)c1=O` [Example 2.2, N-[4-[[6-(1,4-diazepan-1-yl)-1,7-naphthyridin-4-yl]amino]phenyl]-2-oxo-1-phenyl-pyridine-3-carboxamide] the same measures were 6.72, 7.27 and 7.63.
For the molecule `Cn1cc(-c2cc3c(Nc4ccc(NC(=O)c5cccn(-c6ccccc6)c5=O)cc4)ccnc3cn2)cn1` [Example 4, N-[4-[[6-(1-methylpyrazol-4-yl)-1,7-naphthyridin-4-yl]amino]phenyl]-2-oxo-1-phenyl-pyridine-3-carboxamide], the pIC50 in assay [2] (setting [4]) is 8.52; in assay [3], 5.54.
In the case of `CN1CCC(n2cc(-c3cc4c(Nc5ccc(NC(=O)c6cccn(-c7ccccc7)c6=O)cc5)ccnc4cn3)cn2)CC1` [Example 4.1, N-[4-[[6-[1-(1-methyl-4-piperidyl)pyrazol-4-yl]-1,7-naphthyridin-4-yl]amino]phenyl]-2-oxo-1-phenyl-pyridine-3-carboxamide], the results for the pIC50 in assay [1], in assay [2] and in assay [3] were 6.88, 7.43 and 6.88, respectively.
On to `O=C(N[C@H]1CC[C@H](O)CC1)c1cc2c(Nc3ccc(NC(=O)c4cccn(-c5ccccc5)c4=O)cc3)ccnc2cn1` [Example 5, N-(4-hydroxycyclohexyl)-4-[4-[(2-oxo-1-phenyl-pyridine-3-carbonyl)amino]anilino]-1,7-naphthyridine-6-carboxamide], for which the pIC50 is 7.01 in assay [1], 7.22 in assay [2] and 7.02 in assay [3].
For the molecule `O=C(NOCCO)c1cc2c(Nc3ccc(NC(=O)c4cccn(-c5ccccc5)c4=O)cc3)ccnc2cn1` [Example 5.1, N-(2-hydroxyethoxy)-4-[4-[(2-oxo-1-phenyl-pyridine-3-carbonyl)amino]anilino]-1,7-naphthyridine-6-carboxamide], the pIC50 in assay [1] is 6.47; in assay [2], 7.15; in assay [3], 6.87.
Consider `NC(=O)c1cc2c(Nc3ccc(NC(=O)c4cccn(-c5ccccc5)c4=O)cc3)ccnc2cn1` [Example 5.2, 4-[4-[(2-oxo-1-phenyl-pyridine-3-carbonyl)amino]anilino]-1,7-naphthyridine-6-carboxamide], for which the pIC50 in assay [1] is 6.44; in assay [2] (setting [4]), 7.77; in assay [3] it was 6.76.
As to `CNC(=O)c1cc2c(Nc3ccc(NC(=O)c4cccn(-c5ccccc5)c4=O)cc3)ccnc2cn1` [Example 5.3, N-methyl-4-[4-[(2-oxo-1-phenyl-pyridine-3-carbonyl)amino]anilino]-1,7-naphthyridine-6-carboxamide], the pIC50 in assay [1] is 7.33; in assay [2] (setting [4]) it was 7.96; in assay [3] it was 7.38.
As for `CN1CCC(NC(=O)c2cc3c(Oc4ccc(NC(=O)c5cccn(-c6ccccc6)c5=O)cc4)ccnc3cn2)CC1` [Example 6, N-(1-methyl-4-piperidyl)-4-[4-[(2-oxo-1-phenyl-pyridine-3-carbonyl)amino]phenoxy]-1,7-naphthyridine-6-carboxamide], the pIC50 in assay [1] is 6.96; in assay [2] it was 7.28; in assay [3], 6.96.
